Values joined by “and” are separate entries in the source; they are usually repeats but may differ in a detail not shown here. Identical values can stand only once.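 Exposure lasted 48 hours, with cells grown in 96-well plates and compounds tested at five concentrations. GI50 is the concentration that inhibits growth by half. Definition used: TGI = concentration required for complete inhibition of growth.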
Key:
Assay in all cases: NCI tumour cell line growth inhibition, 48 h; in the data active = GI50 below about 0.43 µM; inactive = the rest
786-0 renal = system: 786-0 renal
A498 renal = system: A498 renal
A549 NSCLC = system: A549 NSCLC
ACHN renal = system: ACHN renal
BT-549 breast = system: BT-549 breast
CAKI-1 renal = system: CAKI-1 renal
CCRF-CEM leukemia = system: CCRF-CEM leukemia
COLO 205 colon = system: COLO 205 colon
DU-145 prostate = system: DU-145 prostate
EKVX NSCLC = system: EKVX NSCLC
HCC-2998 colon = system: HCC-2998 colon
HCT-116 colon = system: HCT-116 colon
HCT-15 colon = system: HCT-15 colon
HL-60(TB) leukemia = system: HL-60(TB) leukemia
HOP-62 NSCLC = system: HOP-62 NSCLC
HOP-92 NSCLC = system: HOP-92 NSCLC
HS 578T breast = system: HS 578T breast
HT29 colon = system: HT29 colon
IGROV1 ovarian = system: IGROV1 ovarian
K-562 leukemia = system: K-562 leukemia
KM12 colon = system: KM12 colon
LOX IMVI melanoma = system: LOX IMVI melanoma
M14 melanoma = system: M14 melanoma
MALME-3M melanoma = system: MALME-3M melanoma
MCF7 breast = system: MCF7 breast
MDA-MB-231 breast = system: MDA-MB-231 breast
MDA-MB-435 = system: MDA-MB-435
MDA-N = system: MDA-N
MOLT-4 leukemia = system: MOLT-4 leukemia
NCI-H226 lung = system: NCI-H226 lung
NCI-H23 lung = system: NCI-H23 lung
NCI-H460 lung = system: NCI-H460 lung
NCI-H522 lung = system: NCI-H522 lung
NCI/ADR-RES ovarian = system: NCI/ADR-RES ovarian
OVCAR-3 ovarian = system: OVCAR-3 ovarian
OVCAR-4 ovarian = system: OVCAR-4 ovarian
OVCAR-5 ovarian = system: OVCAR-5 ovarian
OVCAR-8 ovarian = system: OVCAR-8 ovarian
PC-3 prostate = system: PC-3 prostate
RPMI-8226 leukemia = system: RPMI-8226 leukemia
RXF 393 renal = system: RXF 393 renal
SF-268 CNS = system: SF-268 CNS
SF-295 CNS = system: SF-295 CNS
SF-539 CNS = system: SF-539 CNS
SK-MEL-2 melanoma = system: SK-MEL-2 melanoma
SK-MEL-28 melanoma = system: SK-MEL-28 melanoma
SK-MEL-5 melanoma = system: SK-MEL-5 melanoma
SK-OV-3 ovarian = system: SK-OV-3 ovarian
SN12C renal = system: SN12C renal
SNB-19 CNS = system: SNB-19 CNS
SNB-75 CNS = system: SNB-75 CNS
SR leukemia = system: SR leukemia
SW-620 colon = system: SW-620 colon
T-47D breast = system: T-47D breast
TK-10 renal = system: TK-10 renal
U251 CNS = system: U251 CNS
UACC-257 melanoma = system: UACC-257 melanoma
UACC-62 melanoma = system: UACC-62 melanoma
UO-31 renal = system: UO-31 renal

O=C(O)Cc1ccccc1
1420 µM: TGI (RPMI-8226 leukemia)
> 1000 µM: TGI (CAKI-1 renal) | TGI (DU-145 prostate) | TGI (HCT-116 colon) | TGI (HL-60(TB) leukemia) | TGI (SR leukemia)
> 1000 µM and 727 µM: TGI (OVCAR-4 ovarian)
> 1000 µM and 1940 µM: TGI (RXF 393 renal)
> 1000 µM and 1710 µM: TGI (HCT-15 colon)
> 1000 µM and 1780 µM: TGI (HS 578T breast)
> 1000 µM and 1970 µM: TGI (MALME-3M melanoma)
> 1000 µM and 1260 µM: TGI (MOLT-4 leukemia)
> 1000 µM and 1700 µM: TGI (A498 renal)
> 2000 µM: TGI (786-0 renal) | TGI (A549 NSCLC) | TGI (ACHN renal) | TGI (BT-549 breast) | TGI (CCRF-CEM leukemia) | TGI (COLO 205 colon) | TGI (EKVX NSCLC) | TGI (HCC-2998 colon) | TGI (HOP-62 NSCLC) | TGI (HT29 colon) | TGI (IGROV1 ovarian) | TGI (KM12 colon) | TGI (LOX IMVI melanoma) | TGI (M14 melanoma) | TGI (MCF7 breast) | TGI (MDA-MB-231 breast) | TGI (MDA-MB-435) | TGI (MDA-N) | TGI (NCI-H226 lung) | TGI (NCI-H23 lung) | TGI (NCI-H522 lung) | TGI (NCI/ADR-RES ovarian) | TGI (OVCAR-3 ovarian) | TGI (OVCAR-5 ovarian) | TGI (OVCAR-8 ovarian) | TGI (PC-3 prostate) | TGI (SF-268 CNS) | TGI (SF-295 CNS) | TGI (SF-539 CNS) | TGI (SK-MEL-2 melanoma) | TGI (SK-MEL-28 melanoma) | TGI (SK-MEL-5 melanoma) | TGI (SK-OV-3 ovarian) | TGI (SN12C renal) | TGI (SNB-19 CNS) | TGI (SNB-75 CNS) | TGI (SW-620 colon) | TGI (T-47D breast) | TGI (TK-10 renal) | TGI (U251 CNS) | TGI (UACC-257 melanoma) | TGI (UACC-62 melanoma) | TGI (UO-31 renal)
inactive: GI50 (A498 renal) > 1000 µM | GI50 (A549 NSCLC) > 1000 µM | GI50 (ACHN renal) > 1000 µM | GI50 (CAKI-1 renal) > 1000 µM | GI50 (CCRF-CEM leukemia) > 1000 µM | GI50 (COLO 205 colon) > 1000 µM | GI50 (DU-145 prostate) > 1000 µM | GI50 (EKVX NSCLC) > 1000 µM | GI50 (HCC-2998 colon) > 1000 µM | GI50 (HCT-116 colon) > 1000 µM | GI50 (HCT-15 colon) > 1000 µM | GI50 (HL-60(TB) leukemia) > 1000 µM | GI50 (HOP-62 NSCLC) > 1000 µM | GI50 (HOP-92 NSCLC) > 1000 µM | GI50 (HS 578T breast) > 1000 µM | GI50 (IGROV1 ovarian) > 1000 µM | GI50 (K-562 leukemia) > 1000 µM | GI50 (KM12 colon) > 1000 µM | GI50 (LOX IMVI melanoma) > 1000 µM | GI50 (M14 melanoma) > 1000 µM | GI50 (MALME-3M melanoma) > 1000 µM | GI50 (MDA-MB-231 breast) > 1000 µM | GI50 (MDA-N) > 1000 µM | GI50 (MOLT-4 leukemia) > 1000 µM | GI50 (NCI-H226 lung) > 1000 µM | GI50 (NCI-H23 lung) > 1000 µM | GI50 (NCI-H460 lung) > 1000 µM | GI50 (NCI-H522 lung) > 1000 µM | GI50 (NCI/ADR-RES ovarian) > 1000 µM | GI50 (OVCAR-4 ovarian) > 1000 µM | GI50 (OVCAR-5 ovarian) > 1000 µM | GI50 (OVCAR-8 ovarian) > 1000 µM | GI50 (PC-3 prostate) > 1000 µM | GI50 (RXF 393 renal) > 1000 µM | GI50 (SF-268 CNS) > 1000 µM | GI50 (SF-539 CNS) > 1000 µM | GI50 (SK-MEL-2 melanoma) > 1000 µM | GI50 (SK-MEL-28 melanoma) > 1000 µM | GI50 (SK-MEL-5 melanoma) > 1000 µM | GI50 (SK-OV-3 ovarian) > 1000 µM | GI50 (SN12C renal) > 1000 µM | GI50 (SNB-19 CNS) > 1000 µM | GI50 (SNB-75 CNS) > 1000 µM | GI50 (SW-620 colon) > 1000 µM | GI50 (T-47D breast) > 1000 µM | GI50 (TK-10 renal) > 1000 µM | GI50 (U251 CNS) > 1000 µM | GI50 (UACC-257 melanoma) > 1000 µM | GI50 (UACC-62 melanoma) > 1000 µM
> 1000 µM and 1010 µM: TGI (K-562 leukemia)
> 1000 µM and 933 µM: TGI (NCI-H460 lung)
> 1000 µM and 1250 µM: TGI (HOP-92 NSCLC)

Source: PubChem BioAssay (NCI)
